Measured values from US10208033B2, “β-carboline, dihydro-β-carboline and tetrahydro-β-carboline alkaloid derivatives and preparation methods same and use in aspects of preventing and treating plant viruses, fungicides and insecticides” (NANKAI UNIVERSITY, priority 2013, dated 2019).

Legend:
[1] = test system: tobacco mosaic virus (TMV); assay: Anti-TMV in vitro effect (half-leaf soaking); format: cell-based, tobacco mosaic virus (host Nicotiana tabacum L.cv.Xanthi NN)
[2] = test system: tobacco mosaic virus (TMV); assay: Anti-TMV in vivo inactivation; parameters: species or system tobacco mosaic virus (host Nicotiana tabacum L.cv.Xanthi NN)
[3] = test system: tobacco mosaic virus (TMV); assay: Anti-TMV in vivo therapeutic effect; parameters: species or system tobacco mosaic virus (host Nicotiana tabacum L.cv.Xanthi NN)
[4] = test system: tobacco mosaic virus (TMV); assay: Anti-TMV in vivo protective effect; parameters: species or system tobacco mosaic virus (host Nicotiana tabacum L.cv.Xanthi NN)
cucumber fusarium wilt = assay: Fungicidal (bactericidal) activity in vitro, PDA colony diameter; format: cell-based; conditions: 50 mg/kg
Cercospora arachidicola = assay: as above; format: cell-based; conditions: 50 mg/kg
Macrophoma kawatsukai = assay: as above; format: cell-based; conditions: 50 mg/kg
Alternaria solani = assay: as above; format: cell-based; conditions: 50 mg/kg
Fusarium graminearumt = assay: microbe, parasite or virus in culture; format: cell-based; conditions: 50 mg/kg
potato late blight = assay: microbe, parasite or virus in culture; format: cell-based
Sclerotinia scleotiorum = assay: Fungicidal (bactericidal) activity in vitro, PDA colony diameter; format: cell-based; conditions: 50 mg/kg
Botrytis cinerea = assay: as above; format: cell-based; conditions: 50 mg/kg
Rhizoctonia solani = assay: as above; format: cell-based; conditions: 50 mg/kg
Phytophthora capsici = assay: as above; format: cell-based; conditions: 50 mg/kg
Fusarium fujikuroi = assay: as above; format: cell-based; conditions: 50 mg/kg
Rhizoctonia cereali = assay: as above; format: cell-based; conditions: 50 mg/kg
Bipolaria maydis = assay: organism not typed; format: cell-based; conditions: 50 mg/kg
[5] = test system: Colletotrichum orbiculare; assay: Fungicidal (bactericidal) activity in vitro, PDA colony diameter; format: cell-based; conditions: 50 mg/kg
armyworms = format: in vivo; conditions: concentration 600 mg/kg
cotton bollworms = assay: whole plant or invertebrate; conditions: concentration 600 mg/kg
Procedure: Experimental method of cotton bollworms: feed and drug mixing method: measure 3 mL of prepared solution and add it to about 27 g of newly prepared feed, thereby obtaining needed concentration through dilution by 10 times.

mosquito larvae = assay: whole plant or invertebrate; conditions: for Mosquito larvae Mortality (%): 24 h
How it was run: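 Early fourth-instar Culex pipiens pallens larvae from an indoor colony, 10 per beaker, exposed to test compound at 5 ppm in water, diluted from a 1000 ppm acetone mother solution. Blank: water containing 0.5 mL test solvent.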

[6] = test system: tobacco mosaic virus (TMV); assay: Anti-TMV activity, overall statements on Table 1; format: in vivo, tobacco mosaic virus (host Nicotiana tabacum L.cv.Xanthi NN); conditions: 100 μg/mL versus ningnanmycin at 100 μg/mL
[7] = test system: armyworms, cotton bollworms and corn borers; assay: Insecticidal activity, overall statements on Table 3; format: in vivo; conditions: Table 3, 600 mg/kg
corn borers = conditions: concentration 600 mg/kg

C[C@@H]1N[C@H](C(=O)NN=Cc2ccc[nH]2)Cc2c1[nH]c1ccccc21 [Ic-19, (1S, 3S)—N′-(pyrrole-2-methylene)-1-methyl-2,3,4,9-tetrahydropyridino [3,4-b] indol-3-formylhydrazine]
Relative inhibition rate (%) In vitro activity ([1]; treatment dose 100 μg/mL): 8.8% | Relative inhibition rate (%) In vitro activity ([1]; treatment dose 500 μg/mL): 49.5% | Relative inhibition rate (%) In vivo inactivation ([2]; treatment dose 100 μg/mL): 20.2% | Relative inhibition rate (%) In vivo inactivation ([2]; treatment dose 500 μg/mL): 61.3% | Relative inhibition rate (%) In vivo therapy ([3]; treatment dose 100 μg/mL): 27.8% | Relative inhibition rate (%) In vivo therapy ([3]; treatment dose 500 μg/mL): 63.4% | Relative inhibition rate (%) In vivo protection ([4]; treatment dose 100 μg/mL): 30% | Relative inhibition rate (%) In vivo protection ([4]; treatment dose 500 μg/mL): 54.7% | Bactericidal activity (%) Cucumber fusarium wilt (cucumber fusarium wilt): 23.1% | Bactericidal activity (%) Cercospora arachidicola (Cercospora arachidicola): 23.5% | Bactericidal activity (%) Macrophoma kawatsukai (Macrophoma kawatsukai): 97.2% | Bactericidal activity (%) Alternaria solani (Alternaria solani): 15.0% | Bactericidal activity (%) Fusarium graminearumt (Fusarium graminearumt): 41.4% | Bactericidal activity (%) potato late blight (potato late blight): 24.0% | Bactericidal activity (%) Sclerotinia scleotiorum (Sclerotinia scleotiorum): 58.8% | Bactericidal activity (%) Botrytis cinerea (Botrytis cinerea): 22.7% | Bactericidal activity (%) Rhizoctonia solani (Rhizoctonia solani): 32.9% | Bactericidal activity (%) Phytophthora capsici (Phytophthora capsici): 42.1% | Bactericidal activity (%) Fusarium fujikuroi (Fusarium fujikuroi): 14.3% | Bactericidal activity (%) Rhizoctonia cereali (Rhizoctonia cereali): 74.5% | Bactericidal activity (%) Bipolaria maydis (Bipolaria maydis): 28.0% | Bactericidal activity (%) Colletotrichum orbiculare [5]: 29.6% | Armyworm Mortality (%) (armyworms): 70% | Cotton bollworm Mortality (%) (cotton bollworms): 50% | activity against culex pipiens larvae (in words) (mosquito larvae; at 5 mg/kg): still show high activity | Mosquito larvae Mortality (%) (mosquito larvae; concentration 5 mg/kg): 80% | Mosquito larvae Mortality (%) (mosquito larvae; concentration 10 mg/kg): 100% | anti-TMV activity compared with ningnanmycin [6]: equivalent to the activity of commercial variety ningnanmycin | activity against armyworms, cotton bollworms and corn borers (in words) [7]: broad-spectrum activity | Corn borer Mortality (%) (corn borers): 60%
